Results: patent US20230348362A1, “LIPID COMPOUNDS AND LIPID NANOPARTICLE COMPOSITIONS” (Suzhou Abogen Biosciences Co., Ltd., priority 2021, published 2023)

Key:
Assay type in all cases: physicochemical
[1] = Encapsulation efficiency of lipid nanoparticles, Quant-it Ribogreen RNA assay; details: LNP of lipid/DSPC/cholesterol/PEG-lipid 50:10:38.5:1.5 encapsulating hEPO mRNA
Experimental: (§1) Briefly, a cationic lipid provided herein, DSPC, cholesterol, and PEG-lipid were solubilized in ethanol at a molar ratio of 50:10:38.5:1.5, and mRNA were diluted in 10 to 50 mM citrate buffer, pH=4. The LNPs were prepared at a total lipid to mRNA weight ratio of approximately 10:1 to 30:1 by mixing the ethanolic lipid solution with the aqueous mRNA solution at a volume ratio of 1:3 using a microfluidic apparatus, total flow rate ranging from 9-30 mL/min. Ethanol were thereby removed and replaced by DPBS using dialysis. Finally, the lipid nanoparticles were filtered through a […] sterile filter.
(§2) Lipid nanoparticle size were determined by dynamic light scattering using a Malvern Zetasizer Nano ZS (Malvern UK) using a […] backscatter detection mode. The encapsulation efficiency of lipid nanoparticles were determined using a Quant-it Ribogreen RNA quantification assay kit (Thermo Fisher Scientific, UK) according to the manufacturer's instructions.

[2] = Lipid nanoparticle size and polydispersity by dynamic light scattering; details: LNP of lipid/DSPC/cholesterol/PEG-lipid 50:10:38.5:1.5 encapsulating hEPO mRNA
Experimental: as §1, §2

[3] = Apparent pKa of LNP formulations, TNS fluorescence assay; details: LNP cationic lipid/DSPC/cholesterol/DMG-PEG 50/10/38.5/1.5 mol %
Experimental: As reported in literature, the apparent pKa of LNP formulations correlates with the delivery efficiency of LNPs for nucleic acids in vivo. The apparent pKa of each formulation was determined using an assay based on fluorescence of 2-(p-toluidino)-6-napthalene sulfonic acid (TNS). LNP formulations comprising of cationic lipid/DSPC/cholesterol/DMG-PEG (50/10/38.5/1.5 mol %) in PBS were prepared as described above. TNS was prepared as a 300 μM stock solution in distilled water. LNP formulations were diluted to 0.1 mg/mL total lipid in 3 mL of buffered solutions containing 50 mM sodium citrate, 50 mM sodium phosphate, 50 mM sodium borate, and 30 mM sodium chloride where the pH ranged from 3 to 9. An aliquot of the TNS solution was added to give a final concentration of […] and following vortex mixing fluorescence intensity was measured at room temperature in a Molecular Devices Spectramax iD3 spectrometer using excitation and mission wavelengths of 325 nm and 435 nm. A sigmoidal best fit analysis was applied to the fluorescence data and the pKa value was measured as the pH giving rise to half-maximal fluorescent intensity.

Structure (SMILES) | Encapsulation Efficiency [1] [%] | polydispersity [2] | size (nm) [2] [nm] | Apparent Pka [3]
CCCCCCCCC(CCCCCCCC)COC(=O)CCCCCN(CCN(CCCCCC(=O)OCC(CCCCCCCC)CCCCCCCC)C1CCC(O)CC1)C1CCC1 (centres unmarked) [Compound 55] | 95.6 | 0.071 | 83.97 | 5.951
CCCCCCCC(=O)OCC(CCCCN(CCO)CCN(CCCCC(COC(=O)CCCCCCC)COC(=O)CCCCCCC)C1CCCCC1)COC(=O)CCCCCCC [Compound 141] | 88.11 | 0.128 | 63.69 | 6.475
CCCCCCCCC(CCCCCCCC)COC(=O)CCCCCN(CCO)CCN(CCCCCOC(=O)OCC(CCCCCCCC)CCCCCCCC)C1CCCCC1 [Compound 133] | 94.56 | 0.267 | 74.57 | 5.990
CCCCCCCCC(CCCCCCCC)COC(=O)CCCCCN(CCO)CCN(CCCCCC(=O)OCC(CCCCCCCC)CCCCCCCC)Cc1ccc(O)cc1 [Compound 56] | 92.96 | 0.174 | 57.44 | 6.702
CCCCCCCCC(CCCCCCCC)COC(=O)CCCCCN(CCO)CCN(CCCCCC(=O)OCC(CCCCCCCC)CCCCCCCC)C1CCC(C)(C)CC1 [Compound 31] | 88.2 | 0.092 | 54.55 | 5.708
CCCCCCCCCCCOC(=O)CCCCCN(CCN(CCO)CCCCC(COC(=O)CCCCCCC)COC(=O)CCCCCCC)C1CCCCC1 [Compound 221] | 93.71 | 0.07 | 99.33 | 6.316
CCCCCCCCC(CCCCCCCC)COC(=O)CCCCCN(CCO)CCN(CCCCCC(=O)OCC(CCCCCCCC)CCCCCCCC)C1CCC(C)CC1 (centres unmarked) [Compound 40] | 87.1 | 0.03 | 52.06 | 5.838
CCCCCCCCC(CCCCCCCC)COC(=O)CCCCCN(CCC)CCN(CCCCCC(=O)OCC(CCCCCCCC)CCCCCCCC)C1CCC(O)CC1 (centres unmarked) [Compound 52] | 95.6 | 0.089 | 67.63 | 6.114
CCCCCCCCC(CCCCCCCC)COC(=O)CCCCCN(CCO)CCN(CCCCCC(=O)OCC(CCCCCCCC)CCCCCCCC)Cc1ccccc1 [Compound 36] | 89.3 | 0.093 | 49.69 | 5.802
CCCCCCCCC(CCCCCCCC)COC(=O)CCCCCN(CCO)CCN(CCCCCC(=O)OCC(CCCCCCCC)CCCCCCCC)C1CCOCC1 [Compound 28] | 92.4 | 0.045 | 62.35 | 6.686
CCCCCCCCCCCOC(=O)CCCCCN(CCN(CCO)CCCCCC(=O)OCC(CCCCCC)CCCCCCCC)C1CCCC1 (centres unmarked) [Compound 5] | 92.7 | 0.073 | 99.12 | 6.56
CCCCCCCCC(CCCCCCCC)COC(=O)CCCCCN(CCO)CCN(CCCCCOC(=O)CCCCC=C(CCCCCC)CCCCCC)C1CCC1 [Compound 87] | 93.34 | 0.055 | 70.07 | 6.476
CCCCCCCCC(CCCCCC)CNC(=O)CCCCN(CCO)CCN(CCCCC(COC(=O)CCCCCCC)COC(=O)CCCCCCC)C1CCCCCC1 (centres unmarked) [Compound 229] | 92.04 | 0.042 | 77.73 | 6.849
CCCCCCCC(=O)OCC(CCCCN1CCC(N(CCO)CCCCC(COC(=O)CCCCCCC)COC(=O)CCCCCCC)CC1)COC(=O)CCCCCCC [Compound 180] |  |  |  | 6.699
CCCCCCCCCCCOC(=O)CCCCCN1CCC(N(CCO)CCCCCC(=O)OCC(CCCCCCCC)CCCCCCCC)CC1 [Compound 173] | 95.29 | 0.068 | 61.61 | 
CCCCCCCCC(CCCCCC)CNC(=O)CCN(CCO)CCN(CCCCC(COC(=O)CCCCCCC)COC(=O)CCCCCCC)C1CCCCC1 (centres unmarked) [Compound 211] | 84.88 | 0.035 | 112.6 | 
CCCCCCCCC(CCCCCC)CNC(=O)CCCCCN(CC)CCN(CCO)CCCCC(COC(=O)CCCCCCC)COC(=O)CCCCCCC (centres unmarked) [Compound 159] | 90.71 | 0.080 | 77.72 | 

Structure (SMILES) | Encapsulation Efficiency [1] [%] | polydispersity [2] | size (nm) [2] [nm] | Apparent Pka [3]
CCCCCCCCCCCOC(=O)CCCCCN(CC=C(C)C)CCN(CCCCCC(=O)OCC(CCCCCCCC)CCCCCCCC)C1CCC(O)CC1 (centres unmarked) [Compound 125] | 92.89 | 0.035 | 90.98 | 
CCCCCCCCC(CCCCCC)CNC(=O)CCCCCN(CCCCN(CCO)CCCCC(COC(=O)CCCCCCC)COC(=O)CCCCCCC)C1CCCC1 (centres unmarked) [Compound 196] | 86.33 | 0.18 | 104.1 | 
CCCCCCCCC(CCCCCC)CNC(=O)CCN(CCO)CCN(CCCCC(COC(=O)CCCCCCC)COC(=O)CCCCCCC)C1CCCCCCC1 (centres unmarked) [Compound 213] | 88.38 | 0.07 | 110.8 | 
CCCCCCCCC(CCCCCC)COC(=O)CCCCCN(CC=C(C)C)CCN(CCO)CCCCC(COC(=O)CCCCCCC)COC(=O)CCCCCCC (centres unmarked) [Compound 148] | 90.40 | 0.081 | 64.31 | 
CCCCCCCC(=O)OCC(CCCCN(CC=C(C)C)CCN(CCO)CCCCC(COC(=O)CCCCCCC)COC(=O)CCCCCCC)COC(=O)CCCCCCC [Compound 162] | 85.46 | 0.068 | 82.68 | 
CCCCCCCCC(CCCCCC)COC(=O)CCCCCN(CCO)CCN(CCCCC(COC(=O)CCCCCCC)COC(=O)CCCCCCC)C1CCCCC1 (centres unmarked) [Compound 139] | 87.81 | 0.076 | 59.97 | 
CCCCCCCCC(CCCCCCCC)CC(=O)NCCCCCN(CCN(CCO)CCCCCOC(=O)CC(CCCCCCCC)CCCCCCCC)C1CCCCCCC1 [Compound 75] | 92.59 | 0.037 | 76.62 | 
CCCCCCCCC(CCCCCC)CNC(=O)CCCCCN(CCO)CCN(CCCCC(COC(=O)CCCCCCC)COC(=O)CCCCCCC)C1CCCC1 (centres unmarked) [Compound 138] | 90.03 | 0.107 | 81.24 | 
CCCCC/C=C\C/C=C\CCCCCCCC(=O)OCCCCCN(CCN(CCO)CCCCCC(=O)OCC(CCCCCCCC)CCCCCCCC)C1CCCCC1 [Compound 108] | 91.83 | 0.068 | 67.69 | 
CCCCCCCCCCCOC(=O)CCCCCN(CCN(CCO)CCOCCC(=O)OCC(CCCCCCCC)CCCCCCCC)C1CCCCC1 [Compound 115] | 90.22 | 0.058 | 97.51 | 
CCCCCCCCCCCOC(=O)CCCCCN(CCN(CCO)CCCCCC(=O)OCC(CCCCCCCC)CCCCCCCC)C1CCC1 [Compound 106] | 92.14 | 0.067 | 67.63 | 
CCCCCCCCCCCC(=O)OCCCCCN(CCN(CCO)CCOCCOC(=O)CC(CCCCCCCC)CCCCCCCC)C1CCCCC1 [Compound 98] | 89.31 | 0.042 | 91.85 | 
CCCCCCCCCCCOC(=O)CCOCCN(CCN(CCO)CCOCCC(=O)OCC(CCCCCCCC)CCCCCCCC)C1CCCCC1 [Compound 117] | 89.34 | 0.050 | 79.67 | 
CCCCCCCCC(CCCCCC)CNC(=O)CCCCCN(CCO)CCN(CCCCC(COC(=O)CCCCCCC)COC(=O)CCCCCCC)C1CCCCC1 (centres unmarked) [Compound 140] | 89.74 | 0.051 | 71.01 | 
CCCCCCCCCCCOC(=O)CCCCCN(CCN(CCO)CCCCCC(=O)NCC(CCCCCCCC)CCCCCCCC)C1CCCCC1 [Compound 44] | 92.6 | 0.081 | 77.48 | 
CCCCCCCCC(CCCCCC)CNC(=O)CCCCCN(CCO)CCN(CCCCC(COC(=O)CCCCCCC)COC(=O)CCCCCCC)C1CCCCCCC1 (centres unmarked) [Compound 145] | 88.63 | 0.047 | 68.91 | 
